# Results taken from patent US20260027073A1, “USE OF SMALL-MOLECULE COMPOUND HAVING NAPHTHYLAMINE STRUCTURE” (HANGZHOU PHECDAMED CO., LTD., priority 2023, published 2026).
# Tests used:
# UUO model mice = assay: UUO-induced renal fibrosis; type: in vivo
# Procedure: The UUO model is currently the most widely used experimental animal model for studying renal tubulointerstitial fibrosis. By ligating a unilateral ureter to cause obstruction of the renal drainage system, leading to acute alterations in renal function and chronic damage to renal structure, it simulates renal interstitial injury caused by ureteral obstruction, which is common in clinical practice. The modeling was performed as follows: • (1) On the first day of the test, mice were given 50 mg/kg sodium pentobarbital anesthesia, after confirming that the mice were under anesthesia and preparing and disinfecting the skin, an incision of about 1 cm at 1 cm left and below of the costovertebral angle was made, the left side of the kidney was fully exposed and the ureter was sought downward along the renal hilum, and the ureter was ligated with a 6-0 nylon thread, and after ligation, the muscle and the skin layers were sutured layer by layer. In the sham group, only the kidney was exposed, but it was not ligated, and sutured directly. The experiments were divided into a sham group (Sham, oral gavage of vehicle), a model control group (vehicle, oral gavage of vehicle), a TJ01-013 10 mg/kg treatment group ([…]), and the vehicle used is 0.5% CMC-Na, administered at a dose of 10 ml/kg, and the frequency of administration was once a day. The drug was administered continuously for 7 days after UUO surgery, at the endpoint of the test, immediately after the mice were put to death, saline was perfused through the heart until the blood in the kidneys was completely drained and the kidneys were transformed from a dark red color to khaki. The operated kidney on the side was collected, the kidney was cut through the short axis of the kidney, and the kidney tissue samples were stored separately according to the requirements of the test. • (2) Renal histopathology
# Kidney tissues were fixed with 4% paraformaldehyde for 48 hours, paraffin-embedded, sectioned at a thickness of 4 μm, and Masson stained. Specific experimental procedures were performed as described previously, and after sectioning and scanning the images, the results were analyzed semi-quantitatively using Image J software.
# Total RNA was extracted from kidney tissue samples by Tissue RNA Rapid Extraction Kit, and the concentration and purity of RNA were determined by micro-ultraviolet spectrophotometer, and then operated according to the instruction steps of HiScript® II 1st Strand cDNA Synthesis Kit, the cDNA was reversely transcribed with 1 μg of total amount of […], followed by a 15 ul amplification system, with 5 μL of cDNA, 7.5 μL of 2×SYBR Premix Ex Taq™, 0.3 μL of each of forward and reverse primers, and the rest was supplemented with double-distilled water. The conditions of the Bio-Rad reaction were 95° C. for 5 min, denaturation at 95° C. for 10 seconds, annealing/extension at 60° C. for 30 seconds for 40 cycles, and 65° C. for 15 min. The expression of the target gene was calculated by 2-ΔΔCt relative quantification. The Ct value of the target gene was first corrected by the internal reference gene (β-actin), and then compared with the control group to derive the relative expression level. […]
# tinnitus model mice = assay: Sodium salicylate-induced tinnitus; type: in vivo, C57BL/6 mice; conditions: 8 kHz and 16 kHz noise; 7.5, 15, 30 mg/kg, dose-dependence; vs model group; FIG. 85
# Procedure: 7-week-old C57BL/6 male mice without tinnitus were screened for tinnitus-free mice using the acoustic startle (AS) response and gap pre-pulse inhibition of the acoustic startle (GPIAS). The mice were randomly divided into five groups, normal control group (normal, n=10), model control group (Control, n=10), TJ01-013 7.5 mg/kg treatment group (7.5 mg/kg, n=10), TJ01-013 15 mg/kg treatment group (15 mg/kg, n=10), and TJ01-013 30 mg/kg treatment group (30 mg/kg, n=10). Except for the normal control group, all the other groups were injected intraperitoneally with 450 mg/kg sodium salicylate to construct the model, in which the normal control group was injected intraperitoneally with the corresponding volume of saline, and the administration treatment was started on the day of modeling, in which the normal control group and the model control group were administrated vehicle (0.5% CMC-Na) by gavage, and the TJ01-013 treatment group was given the treatment of TJ01-013 with the corresponding concentration of TJ01-013 in a volume of 10 ml/kg, and the acoustic startle was measured again 3 hours after the last dose after 4 consecutive days of administration. Behavioral test, AS response paired with GPLAS response was the behavioral experiment to detect the presence of tinnitus. […] The output of the platform is amplified, sampled, stored in a computer, and analyzed offline. […]
# [1] = vs UUO+Vehicle, western blot, FIG. 31
compound,measurement,setting,value
O=C(O)C[S+]([O-])c1cc(NS(=O)(=O)c2ccc(Br)cc2)c2ccccc2c1O (stereo not shown) [I-1],"Collagen volume fraction %, renal cortex (Masson)","UUO model mice; 10 mg/kg TJ01-013, no significant effect vs model control 4.67%, FIG. 29",5.58%
same,"Collagen volume fraction %, renal cortex (Masson)","UUO model mice; 30 mg/kg TJ01-013, vs model control 4.67%, p<0.05, FIG. 29",0.61%
same,fibrosis in the renal medulla,UUO model mice; FIG. 29,reducing effect on fibrosis
same,autophagic vesicles with double-layer or multi-layer membrane structure in the cell (TEM),UUO model mice; FIG. 32,more autophagic vesicles
same,morphology of renal tubular epithelial cells and mitochondria (TEM),"UUO model mice; relative to normal and UUO, FIG. 32",in between the former two
same,Col1a1 gene mRNA expression in renal tissue,"UUO model mice; vs UUO+Vehicle, FIG. 30",certain tendency to inhibit
same,Fn1 gene mRNA expression in renal tissue,"UUO model mice; vs UUO+Vehicle, FIG. 30",significantly reduced
same,collagen type I (collagen I) protein level in kidney,UUO model mice; [1],significantly reduced
same,fibronectin FN protein level in kidney,UUO model mice; [1],significantly reduced
same,AS response amplitude ratios (GPIAS),tinnitus model mice,decreased significantly
